Experimental data reported in US9775844B2, “Heterocyclic compounds and uses thereof” (Infinity Pharmaceuticals, Inc., priority 2014, dated 2017).

Key:
PI3K α = PI3K α (Homo sapiens (Human), UniProt P42336); experiment: PI3-Kinase Promega ADP-Glo Max assay; assay type: biochemical
PI3K-δ in RAJI cells = PI3K-δ in RAJI cells (Homo sapiens (Human), UniProt O00329); experiment: RAJI p110 δ assay (PI3K-δ selective cellular assay, phospho-AKT); assay type: cell-based; details: phospho-AKT; read-out: RAJI p110 δ assay IC50
PI3K δ = PI3K δ (Homo sapiens (Human), UniProt O00329); experiment: PI3-Kinase Promega ADP-Glo Max assay; assay type: biochemical
[1] = biological target: PI3K-γ in RAW264.7 macrophages (Mus musculus (Mouse), UniProt Q9JHG7); experiment: Raw264.7 p110 γ assay (PI3K-γ selective cellular assay, C5a-stimulated phospho-AKT); assay type: cell-based; details: for IC50: phospho-AKT, read-out: Raw264.7 p110 γ assay IC50
Source text: Briefly, serum-starved RAW264.7 cells are stimulated with a known GPCR agonist C5a. […] Cells can be treated with test compounds prior to, simultaneously with, or subsequent to the stimulation by C5a. RAW 264.7 cells respond to the complement component fragment C5a through activation of the C5a receptor, and the C5a receptor activates macrophages and induces cell migration.

PI3K γ = PI3K γ (Homo sapiens (Human), UniProt P48736); experiment: PI3-Kinase Promega ADP-Glo Max assay; assay type: biochemical
Procedure: (§1) Promega ADP-Glo Max assay kit (Cat. No. V7002) was utilized to determine IC50 values for α, β, δ and γ isoforms of human Class I PI3 kinases (Millipore). […] Reactions were incubated at room temperature for 2 hours followed by addition of 25 uL of stop solution. After a 40-minute incubation at room temperature, 50 uL of Promega detection mix was added followed by incubation for 1 hour at room temperature. Plates were then read on Envision plate reader in lunimescence mode. Data was converted to % inhibition using the following equation below:
(§2) [formula] where S is the sample luminescence, Pos is a positive control without added PI3K, Neg is the negative control without added compound. Data was then plotted as % inhibition vs compound concentration.

PI3K β = PI3K β (Homo sapiens (Human), UniProt P42338); experiment: PI3-Kinase Promega ADP-Glo Max assay; assay type: biochemical
PI3K β, sequence (P42338 whole entry): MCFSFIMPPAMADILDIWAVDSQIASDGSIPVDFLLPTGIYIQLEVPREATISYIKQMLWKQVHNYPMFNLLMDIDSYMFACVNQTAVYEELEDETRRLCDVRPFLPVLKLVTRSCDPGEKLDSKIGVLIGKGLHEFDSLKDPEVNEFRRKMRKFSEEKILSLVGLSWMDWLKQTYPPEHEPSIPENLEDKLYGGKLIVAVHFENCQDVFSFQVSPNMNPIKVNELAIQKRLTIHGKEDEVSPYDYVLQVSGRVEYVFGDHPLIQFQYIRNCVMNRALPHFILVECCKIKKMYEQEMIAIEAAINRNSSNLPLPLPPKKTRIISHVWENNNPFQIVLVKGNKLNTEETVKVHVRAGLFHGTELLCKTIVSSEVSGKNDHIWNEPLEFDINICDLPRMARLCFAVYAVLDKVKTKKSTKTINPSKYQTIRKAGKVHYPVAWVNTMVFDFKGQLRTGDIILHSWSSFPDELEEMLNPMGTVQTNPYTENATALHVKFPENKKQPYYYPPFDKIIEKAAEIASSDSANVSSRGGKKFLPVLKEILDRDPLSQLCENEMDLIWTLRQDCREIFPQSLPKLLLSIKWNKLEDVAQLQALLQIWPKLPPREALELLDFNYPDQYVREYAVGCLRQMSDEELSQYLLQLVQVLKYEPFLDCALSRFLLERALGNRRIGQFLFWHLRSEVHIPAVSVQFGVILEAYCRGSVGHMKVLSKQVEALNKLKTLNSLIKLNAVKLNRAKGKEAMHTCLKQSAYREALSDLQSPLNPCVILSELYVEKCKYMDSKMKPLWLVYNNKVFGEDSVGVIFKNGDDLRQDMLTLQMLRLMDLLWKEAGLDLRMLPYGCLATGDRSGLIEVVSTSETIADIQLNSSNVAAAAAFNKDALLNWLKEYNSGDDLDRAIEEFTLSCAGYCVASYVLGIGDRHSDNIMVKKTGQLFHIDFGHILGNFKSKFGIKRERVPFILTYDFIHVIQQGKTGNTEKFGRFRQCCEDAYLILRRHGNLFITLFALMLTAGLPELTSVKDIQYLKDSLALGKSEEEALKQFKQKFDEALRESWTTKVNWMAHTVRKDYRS
PI3K β, sequence (P27986 whole entry partner): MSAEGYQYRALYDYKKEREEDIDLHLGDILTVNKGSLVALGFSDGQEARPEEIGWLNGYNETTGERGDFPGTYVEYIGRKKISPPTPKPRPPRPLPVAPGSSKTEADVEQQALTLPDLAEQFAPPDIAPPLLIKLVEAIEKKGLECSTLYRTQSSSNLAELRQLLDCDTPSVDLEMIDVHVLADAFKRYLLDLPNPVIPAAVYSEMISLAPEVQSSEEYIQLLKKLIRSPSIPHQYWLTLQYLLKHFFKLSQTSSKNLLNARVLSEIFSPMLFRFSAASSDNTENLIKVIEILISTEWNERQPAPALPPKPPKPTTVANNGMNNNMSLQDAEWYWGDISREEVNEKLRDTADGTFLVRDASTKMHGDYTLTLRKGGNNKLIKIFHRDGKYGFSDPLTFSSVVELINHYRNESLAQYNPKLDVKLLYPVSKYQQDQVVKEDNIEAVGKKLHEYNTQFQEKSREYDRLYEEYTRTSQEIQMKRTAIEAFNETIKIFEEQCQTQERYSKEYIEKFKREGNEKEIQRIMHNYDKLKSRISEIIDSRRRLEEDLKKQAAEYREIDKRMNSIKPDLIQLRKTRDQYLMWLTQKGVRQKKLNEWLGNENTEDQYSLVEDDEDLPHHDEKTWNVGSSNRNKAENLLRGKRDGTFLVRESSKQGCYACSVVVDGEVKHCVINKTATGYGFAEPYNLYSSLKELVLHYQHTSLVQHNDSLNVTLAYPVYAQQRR
Procedure: as §1, §2

PI3K-γ in RAW264.7 macrophages, sequence (Q9JHG7 whole entry): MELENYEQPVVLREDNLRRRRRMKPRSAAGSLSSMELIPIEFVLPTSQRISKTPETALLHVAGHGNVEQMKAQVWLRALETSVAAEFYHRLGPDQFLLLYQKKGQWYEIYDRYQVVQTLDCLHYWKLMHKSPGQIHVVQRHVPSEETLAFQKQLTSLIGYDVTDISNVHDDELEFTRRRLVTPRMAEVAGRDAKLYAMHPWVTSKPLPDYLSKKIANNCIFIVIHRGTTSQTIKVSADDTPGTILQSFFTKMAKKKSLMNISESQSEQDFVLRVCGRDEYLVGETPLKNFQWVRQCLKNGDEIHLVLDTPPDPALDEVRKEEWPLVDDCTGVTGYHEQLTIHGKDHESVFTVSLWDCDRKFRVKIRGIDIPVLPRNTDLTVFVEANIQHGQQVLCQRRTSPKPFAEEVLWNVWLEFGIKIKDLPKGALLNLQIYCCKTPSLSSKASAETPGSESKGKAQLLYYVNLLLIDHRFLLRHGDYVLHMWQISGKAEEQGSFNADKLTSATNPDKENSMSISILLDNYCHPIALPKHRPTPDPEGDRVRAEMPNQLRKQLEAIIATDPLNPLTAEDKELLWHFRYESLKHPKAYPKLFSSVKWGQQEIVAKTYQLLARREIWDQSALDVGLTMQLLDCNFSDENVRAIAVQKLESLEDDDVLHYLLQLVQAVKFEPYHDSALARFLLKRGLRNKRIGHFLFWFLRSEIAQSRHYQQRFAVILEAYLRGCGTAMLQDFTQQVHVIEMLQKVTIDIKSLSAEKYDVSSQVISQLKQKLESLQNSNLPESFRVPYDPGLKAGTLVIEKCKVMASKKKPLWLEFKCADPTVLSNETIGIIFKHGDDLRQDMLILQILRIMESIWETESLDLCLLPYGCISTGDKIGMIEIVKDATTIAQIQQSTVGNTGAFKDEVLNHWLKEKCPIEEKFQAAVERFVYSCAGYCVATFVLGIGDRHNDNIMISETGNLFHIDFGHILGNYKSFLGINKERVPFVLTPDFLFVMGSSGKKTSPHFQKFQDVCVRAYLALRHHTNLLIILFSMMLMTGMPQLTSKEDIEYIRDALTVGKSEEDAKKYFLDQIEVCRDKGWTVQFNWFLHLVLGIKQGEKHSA
PI3K δ, sequence (O00329 whole entry): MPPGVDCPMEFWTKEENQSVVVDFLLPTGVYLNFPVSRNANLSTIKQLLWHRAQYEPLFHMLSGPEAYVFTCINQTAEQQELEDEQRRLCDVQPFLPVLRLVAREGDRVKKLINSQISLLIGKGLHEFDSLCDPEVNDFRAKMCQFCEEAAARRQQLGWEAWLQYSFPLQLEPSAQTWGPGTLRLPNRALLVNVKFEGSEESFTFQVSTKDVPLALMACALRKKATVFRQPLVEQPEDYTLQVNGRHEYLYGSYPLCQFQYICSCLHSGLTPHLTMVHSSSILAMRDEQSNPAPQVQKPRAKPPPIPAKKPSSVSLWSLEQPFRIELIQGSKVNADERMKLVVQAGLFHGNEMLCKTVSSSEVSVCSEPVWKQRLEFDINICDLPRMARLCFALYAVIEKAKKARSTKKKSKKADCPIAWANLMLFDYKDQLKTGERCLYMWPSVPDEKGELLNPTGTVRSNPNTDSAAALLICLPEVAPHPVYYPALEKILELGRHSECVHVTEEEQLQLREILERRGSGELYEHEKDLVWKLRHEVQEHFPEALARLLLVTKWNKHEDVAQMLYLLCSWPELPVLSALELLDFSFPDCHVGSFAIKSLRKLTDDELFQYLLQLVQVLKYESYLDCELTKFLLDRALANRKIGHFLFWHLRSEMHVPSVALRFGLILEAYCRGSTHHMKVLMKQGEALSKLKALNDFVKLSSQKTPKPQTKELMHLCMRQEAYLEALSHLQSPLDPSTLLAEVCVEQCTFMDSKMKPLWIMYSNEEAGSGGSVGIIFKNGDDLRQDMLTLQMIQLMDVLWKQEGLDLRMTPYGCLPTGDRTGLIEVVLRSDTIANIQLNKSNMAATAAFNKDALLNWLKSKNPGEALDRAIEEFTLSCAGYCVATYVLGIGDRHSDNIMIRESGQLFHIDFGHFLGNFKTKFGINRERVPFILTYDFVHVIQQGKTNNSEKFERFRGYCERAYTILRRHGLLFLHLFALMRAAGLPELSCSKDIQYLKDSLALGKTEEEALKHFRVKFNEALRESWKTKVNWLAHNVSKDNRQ
PI3K δ, sequence (P27986 whole entry partner): as the sequence (P27986 whole entry partner) above
PI3K-δ in RAJI cells, sequence (O00329 whole entry): as the sequence (O00329 whole entry) above
PI3K-δ in RAJI cells, sequence (P27986 whole entry partner): as the sequence (P27986 whole entry partner) above

SMILES	IC50 (PI3K α)	IC50 (PI3K-δ in RAJI cells)	IC50 (PI3K δ)	RAJIδ/Raw264.7 γ IC50 (selectivity) [1]	IC50 [1]	IC50 (PI3K γ)	PI3K δ/PI3K γ IC50 (selectivity) (PI3K γ)	IC50 (PI3K β)
C#Cc1cccc2nc([C@H](C)NC(=O)c3c(N)nn4cccnc34)n(C)c(=O)c12 [Compound 48]	1 to 5 µM	0.001 to 0.1 µM	1 to 5 µM	V (V = 0.1 to 1)	0.001 to 0.05 µM	0.5 to 1 µM	W (W = >1 to <10)	0.5 to 1 µM
C#Cc1cccc2nc([C@H](C)NC(=O)c3nccnc3N)n(-c3ccc(F)cc3)c(=O)c12 [Compound 49]	5 to 10 µM	0.001 to 0.1 µM	1 to 5 µM	V (V = 0.1 to 1)	0.001 to 0.05 µM	0.001 to 0.1 µM	X (X = 10 to <50)	1 to 5 µM
C#Cc1cccc2nc([C@H](C)NC(=O)c3c(N)nn4cccnc34)n(-c3ccc(F)cc3)c(=O)c12 [Compound 50]	5 to 10 µM	0.001 to 0.1 µM	1 to 5 µM	W (W = >1 to <10)	0.001 to 0.05 µM	0.001 to 0.1 µM	Y (Y = 50 to <850)	5 to 10 µM
CC#Cc1cccc2cc(C(C)NC(=O)c3c(N)nn4cccnc34)c(-c3ccccc3)nc12 (stereo not shown) [Compound 51]	5 to 10 µM	0.001 to 0.1 µM	1 to 5 µM	W (W = >1 to <10)	0.001 to 0.05 µM	0.1 to 0.5 µM	W (W = >1 to <10)	1 to 5 µM
C[C@H](NC(=O)c1c(N)nn2cccnc12)c1cc2cccc(C#Cc3cscn3)c2c(=O)n1-c1ccccc1 [Compound 54]	1 to 5 µM	0.1 to 0.5 µM	1 to 5 µM	W (W = >1 to <10)	0.001 to 0.05 µM	0.001 to 0.1 µM	Y (Y = 50 to <850)	1 to 5 µM
C[C@H](NC(=O)c1c(N)nn2cccnc12)c1nc2cccc(C#Cc3cnn(C)c3)c2c(=O)n1C [Compound 55]	1 to 5 µM	0.5 to 1 µM	5 to 10 µM	X (X = 10 to <50)	0.001 to 0.05 µM	1 to 5 µM	W (W = >1 to <10)	1 to 5 µM
C[C@H](NC(=O)c1c(N)nn2cccnc12)c1cc2cccc(C#CCN3CCN(C)CC3)c2c(=O)n1-c1ccccc1 [Compound 56]	5 to 10 µM	0.1 to 0.5 µM	5 to 10 µM	V (V = 0.1 to 1)	0.1 to 10 µM	0.1 to 0.5 µM	X (X = 10 to <50)	5 to 10 µM
C[C@H](NC(=O)c1c(N)nn2cccnc12)c1cc2cccc(C#CCN(C)C)c2c(=O)n1-c1ccccc1 [Compound 57]	5 to 10 µM	0.1 to 0.5 µM	5 to 10 µM	W (W = >1 to <10)	0.05 to 0.1 µM	0.5 to 1 µM	W (W = >1 to <10)	5 to 10 µM
C[C@H](NC(=O)c1c(N)nn2cccnc12)c1cc2cccc(C#CC(F)(F)F)c2c(=O)n1-c1ccccc1 [Compound 58]	5 to 10 µM	0.5 to 1 µM	5 to 10 µM	V (V = 0.1 to 1)	0.1 to 10 µM	1 to 5 µM	W (W = >1 to <10)	5 to 10 µM
C[C@H](NC(=O)c1c(N)nn2cccnc12)c1cc2cccc(C#Cc3nccs3)c2c(=O)n1-c1ccccc1 [Compound 59]	5 to 10 µM	0.1 to 0.5 µM	5 to 10 µM	X (X = 10 to <50)	0.001 to 0.05 µM	0.1 to 0.5 µM	X (X = 10 to <50)	5 to 10 µM
Cc1csc(C#Cc2cccc3cc([C@H](C)NC(=O)c4c(N)nn5cccnc45)n(-c4ccccc4)c(=O)c23)n1 [Compound 60]	5 to 10 µM	0.1 to 0.5 µM	5 to 10 µM	Y (Y = 50 to <850)	0.001 to 0.05 µM	0.1 to 0.5 µM	X (X = 10 to <50)	5 to 10 µM
Cc1ccncc1C#Cc1cccc2cc([C@H](C)NC(=O)c3c(N)nn4cccnc34)n(-c3ccccc3)c(=O)c12 [Compound 61]	5 to 10 µM	1 to 10 µM	5 to 10 µM	Y (Y = 50 to <850)	0.001 to 0.05 µM	0.5 to 1 µM	X (X = 10 to <50)	5 to 10 µM
C[C@H](NC(=O)c1c(N)nn2cccnc12)c1cc2cccc(C#CC3(O)CN4CCC3CC4)c2c(=O)n1-c1ccccc1 (stereo partly shown) [Compound 62]	5 to 10 µM	1 to 10 µM	5 to 10 µM	V (V = 0.1 to 1)	0.1 to 10 µM	0.5 to 1 µM	X (X = 10 to <50)	5 to 10 µM
Cc1nc(C#Cc2cccc3nc([C@H](C)NC(=O)c4c(N)nn5cccnc45)n(-c4ccccc4)c(=O)c23)cs1 [Compound 63]	5 to 10 µM	0.5 to 1 µM	5 to 10 µM	Y (Y = 50 to <850)	0.001 to 0.05 µM	0.001 to 0.1 µM	Y (Y = 50 to <850)	5 to 10 µM
C[C@H](NC(=O)c1c(N)nn2cccnc12)c1cc2cccc(C#CC3CCCC3)c2c(=O)n1-c1ccccc1 [Compound 64]	5 to 10 µM	1 to 10 µM	5 to 10 µM	X (X = 10 to <50)	0.1 to 10 µM	1 to 5 µM	W (W = >1 to <10)	5 to 10 µM
C[C@H](NC(=O)c1c(N)nn2cccnc12)c1cc2cccc(C#CC3CCCCC3)c2c(=O)n1-c1ccccc1 [Compound 65]	5 to 10 µM	1 to 10 µM	5 to 10 µM	X (X = 10 to <50)	0.1 to 10 µM	1 to 5 µM	W (W = >1 to <10)	5 to 10 µM
C[C@H](NC(=O)c1c(N)nn2cccnc12)c1cc2cccc(C#Cc3cocn3)c2c(=O)n1-c1ccccc1 [Compound 66]	5 to 10 µM	0.1 to 0.5 µM	1 to 5 µM	X (X = 10 to <50)	0.001 to 0.05 µM	0.001 to 0.1 µM	X (X = 10 to <50)	1 to 5 µM
Cc1ncccc1C#Cc1cccc2cc([C@H](C)NC(=O)c3c(N)nn4cccnc34)n(-c3ccccc3)c(=O)c12 [Compound 67]	5 to 10 µM	1 to 10 µM	5 to 10 µM	X (X = 10 to <50)	0.1 to 10 µM	1 to 5 µM	W (W = >1 to <10)	5 to 10 µM
Cc1cnc(C(=O)N[C@@H](C)c2cc3cccc(C#Cc4cnn(C)c4)c3c(=O)n2-c2ccccc2)c(N)n1 [Compound 68]	5 to 10 µM	1 to 10 µM	5 to 10 µM	W (W = >1 to <10)	0.1 to 10 µM	1 to 5 µM	W (W = >1 to <10)	5 to 10 µM
C/C=C/c1cccc2cc([C@H](C)NC(=O)c3c(N)nn4cccnc34)n(-c3ccccc3)c(=O)c12 [Compound 70]	5 to 10 µM	0.001 to 0.1 µM	5 to 10 µM	X (X = 10 to <50)	0.001 to 0.05 µM	0.1 to 0.5 µM	X (key: V = 0.1 to 1; W = >1 to <10; X = 10 to <50; Y = 50 to <850)	5 to 10 µM
